From US20210238201A1, “ANTIMICROBIAL COMPOUNDS AND COMPOSITIONS” (AGROFRESH INC., priority 2020, published 2021)
≈ marks a conversion by molar mass, not a printed value.

Columns and labels:
Alternaria alternata = assay: in vitro inhibition assay for volatile antimicrobial compounds (headspace, PDA agar); format: cell-based; details: volatile headspace exposure
Procedure: [The procedure below names another organism; the source lists this organism under the same test.] (§1) 12-well (6.5 ml volume per well) microtiter plates are used for the in vitro inhibition assay for volatile antimicrobial compounds. A 3-ml volume of full-strength Potato Dextrose Agar (PDA) is added to each well. After cooling, 1 μL of 1×10^5 spores per ml Botrytis cinerea (ATCC #204446) spore suspension is spot pipetted to the agar in the center of the well. Whatman #1 filter disks (1.5 cm; Cat. No. 1001-0155) are placed on the underside of a polyethylene PCR plate sealing film. For determination of the minimum inhibitory concentration (MIC), test compounds are diluted in acetone, in duplicate, and 50 μli of the compound solution is added to disks at concentrations that can vary from 0.001 mg/l to 1142.9 mg/l. The acetone is permitted to evaporate for 5 minutes. The headspace around the Botrytis cinerea inoculum is then sealed inside the well by the film with the adhering disk containing the antimicrobial, anti-decay, anti-spoilage, or pathogen control agent. Plates are inverted to prevent any possibility of the chemical from flaking from the disk and falling onto the inoculated agar.

Penicillium expansum = assay: as above; format: cell-based; details: volatile headspace exposure
Procedure: [The procedure below names another organism; the source lists this organism under the same test.] as §1

[1] = system: Botrytis cinerea (ATCC #204446); assay: as above; format: cell-based; details: for MIC / EC50: Botrytis cinerea, ATCC204446, 72 h; for EC50: growth relative to control
Procedure: as §1

Monilinia fructicola = assay: as above; format: cell-based; details: volatile headspace exposure
Procedure: [The procedure below names another organism; the source lists this organism under the same test.] as §1

[2] = system: Botrytis cinerea (ATCC #204446); assay: Grape in vivo analysis, volatile bioassay on inoculated green table grape; design: species or system Botrytis cinerea on green table grape; details: for antimicrobial activity against Botrytis cinerea in grape in vivo analysis: stem wound inoculated, 3 days treatment at 21° C. plus 3 days evaluation; for phytotoxicity in grape in vivo analysis: symptoms of phytotoxicity evaluated daily
Procedure: In order to assess the in vivo activity of volatile antimicrobial compounds, a volatile bioassay is developed using green table grape. Fruit are removed from the rachis, and 16 to 20 fruit are placed inside a 1 dry pint clamshell (Produce Packaging; Product #03231004KZ) with the stem wound facing upwards. The grapes are inoculated by pipetting 20 μL of 1×10^6 spore per ml Botrytis cinerea (ATCC #204446) into the stem wound. The clamshell is placed inside a 2.55 L plastic container (Snapware; Model #1098421). A Whatman #1 filter paper (4.25 cm; Cat. No. 1001-042) is placed on a watchglass, which is then placed on top of the closed clamshell lid. For determination of the MIC, test compounds are diluted in acetone, and 400 μl of the solution is added to disks, in duplicate, in a dose dependent manner (for example 0.4 to 50 mg/liter). The acetone is permitted to evaporate for 5 minutes. The plastic containers are then closed and placed for 3 days at 21° C. Clamshells are then removed from the treatment plastic container and placed into separate larger secondary containers for a further 3 days of evaluation at 21° C. During these 3 days, fruit are evaluated daily for incidence and severity of disease and symptoms of phytotoxicity.

[3] = system: Escherichia coli (ATCC #25922); assay: in vitro inhibition assay for volatile antimicrobial compounds against bacteria (LB agar); format: cell-based; details: volatile headspace exposure, 2 days at 23° C.
Procedure: 12-well (6.5 ml volume per well) microtiter plates are used for the in vitro inhibition assay for volatile antimicrobial compounds. A 3-ml volume of full-strength L^B Agar is added to each well. After cooling, 15 μL of Escherichia coli (ATCC #25922) adjusted to an optical density of 0.02 to 0.035, and further diluted 1/10 is pipetted to the center of the agar. The plate is tilted to distribute bacteria uniformly. Whatman #1 filter disks (1.5 cm; Cat. No. 1001-0155) are placed on the underside of a polyethylene PCR plate sealing film. […] The acetone is permitted to evaporate for 5 minutes. The headspace around the Escherichia coli inoculum is then sealed inside the well by the film with the adhering disk containing the antimicrobial, anti-decay, anti-spoilage, or pathogen control agent. Plates are inverted, placed over the treated disks and sealed to prevent any of the chemical from flaking from the disk and falling onto the inoculated agar. After 2 days of incubation at 23° C., cultures were evaluated for colony growth relative to control.

[4] = system: Botrytis cinerea (ATCC #204446); assay: Strawberry in vivo analysis, volatile bioassay on wound-inoculated strawberry; design: species or system Botrytis cinerea on strawberry; details: for phytotoxicity in strawberry in vivo analysis: symptoms of phytotoxicity evaluated daily; for antimicrobial activity against Botrytis cinerea in strawberry in vivo analysis: wound-inoculated, 3 days treatment at 21° C. plus 3 days evaluation
Procedure: In order to assess the in vivo activity of volatile antimicrobial compounds, a volatile bioassay is developed using strawberry. Fruit (6 to 8) are placed inside a 1 lb clamshell (Packaging Direct Inc.; Product #4341699) with the calyx facing downward. The strawberry fruit are wound-inoculated by pipetting 20 μL of 1×10^6 spore per ml Botrytis cinerea (ATCC #204446) into a wound approximately 5 mm deep and 2.6 mm in width. The clamshell is placed inside a 2.55 L plastic container (Snapware; Model #1098421). A Whatman #1 filter paper (4.25 cm; Cat. No. 1001-042) is placed on a watchglass, which is then placed on top of the closed clamshell lid. For determination of the MIC, test compounds are diluted in acetone, and 400 μl of the solution is added to disks, in duplicate, in a dose dependent manner (for example 0.4 to 50 mg/liter). The acetone is permitted to evaporate for 5 minutes. The plastic containers are then closed and placed for 3 days at 21° C. Clamshells are then removed from the treatment plastic container and placed into separate larger secondary containers for a further 3 days of evaluation at 21° C. During these 3 days, fruit are evaluated daily for incidence and severity of disease and symptoms of phytotoxicity.

[5] = volatile headspace exposure, 3 days at 23° C.

Row | Compound | EC50 (Penicillium expansum) [µg/mL] | MIC (Penicillium expansum) [µg/mL] | MIC [1, 5] [µg/mL] | EC50 [1, 5] [µg/mL] | further results
1 | CC(COB1OCc2cc(F)ccc21)OB1OCc2cc(F)ccc21 (stereo not shown) [Compound 11, 1,1′-(propane-1,2-diylbis(oxy))bis(5-fluoro-1,3-dihydrobenzo[c][1,2]oxaborole)] | < 0.6 | 8.9 (≈ 25.9 µM) | 0.6 (≈ 1.74 µM) | 0.2 (≈ 0.582 µM) | EC50 (Alternaria alternata): 0.31 µg/mL (≈ 0.901 µM); MIC (Alternaria alternata): 1.1 µg/mL (≈ 3.2 µM); EC50 (Monilinia fructicola): 0.2 µg/mL (≈ 0.582 µM)
2 | CC(C)(OB1OCc2ccccc21)C(C)(C)OB1OCc2ccccc21 [Compound 3, 1,1′-((2,3-dimethylbutane-2,3-diyl)bis(oxy))bis(1,3-dihydrobenzo[c][1,2]oxaborole)] | 11.1 (≈ 31.7 µM) | 71.4 (≈ 204 µM) | 8.9 (≈ 25.4 µM) | 2.1 (≈ 6 µM) | –
3 | CC(C)(COB1OCc2cc(F)ccc21)COB1OCc2cc(F)ccc21 [Compound 8, 1,1′-((2,2-dimethylpropane-1,3-diyl)bis(oxy))bis(5-fluoro-1,3-dihydrobenzo[c][1,2]oxaborole)] | 0.8 (≈ 2.15 µM) | 2.2 (≈ 5.91 µM) | 0.6 (≈ 1.61 µM) | 0.3 (≈ 0.806 µM) | –
4 | c1ccc2c(c1)COB2OCCNCCNCCOB1OCc2ccccc21 [Compound 4, N^1,N^2-bis(2-(benzo[c][1,2]oxaborol-1(3H)-yloxy)ethyl)ethane-1,2-diamine] | 2 (≈ 5.26 µM) | 8.9 (≈ 23.4 µM) | 1.1 (≈ 2.89 µM) | 0.4 (≈ 1.05 µM) | –
5 | Fc1ccc2c(c1)COB2OB1OCc2cc(F)ccc21 [Compound 20, 1,1′-oxybis(5-fluoro-1,3-dihydrobenzo[c][1,2]oxaborole)] | 0.5 (≈ 1.75 µM) | 4.5 (≈ 15.7 µM) | 0.3 (≈ 1.05 µM) | 0.1 (≈ 0.35 µM) | –
6 | Fc1ccc2c(c1)COB2OCCOB1OCc2cc(F)ccc21 [Compound 7, 1,2-bis((5-fluorobenzo[c][1,2]oxaborol-1(3H)-yl)oxy)ethane] | < 0.6 | 8.9 (≈ 27 µM) | 0.6 (≈ 1.82 µM) | 0.2 (≈ 0.606 µM) | EC50 (Alternaria alternata): 0.3 µg/mL (≈ 0.909 µM); MIC (Alternaria alternata): 2.2 µg/mL (≈ 6.67 µM); antimicrobial activity against Botrytis cinerea (in words) ([1]; in vitro analysis, b318 says Botrytis cinerea and/or other pathogens): excellent activity; MIC (Monilinia fructicola): 2.2 µg/mL (≈ 6.67 µM); antimicrobial activity against Botrytis cinerea in grape in vivo analysis [2]: good antimicrobial activity; phytotoxicity in grape in vivo analysis [2]: no phytotoxicity; antimicrobial activity against Escherichia coli (colony growth relative to control) [3]: good antimicrobial activity; phytotoxicity in strawberry in vivo analysis [4]: no phytotoxicity; antimicrobial activity against Botrytis cinerea in strawberry in vivo analysis [4]: good antimicrobial activity
7 | Fc1cc2c(cc1F)B(OCCOB1OCc3cc(F)c(F)cc31)OC2 [Compound 18, 1,2-bis((5,6-difluorobenzo[c][1,2]oxaborol-1(3H)-yl)oxy)ethane] | > 35.7 | > 35.7 | 9 (≈ 24.6 µM) | 3 (≈ 8.2 µM) | –
8 | OC(COB1OCc2cc(F)ccc21)COB1OCc2cc(F)ccc21 [Compound 12, 1,3-bis((5-fluorobenzo[c][1,2]oxaborol-1(3H)-yl)oxy)propan-2-ol] | 1.1 (≈ 3.06 µM) | 8.9 (≈ 24.7 µM) | 0.6 (≈ 1.67 µM) | 0.2 (≈ 0.556 µM) | –
9 | Fc1ccc2c(c1)COB2OCCCOB1OCc2cc(F)ccc21 [Compound 13, 1,3-bis((5-fluorobenzo[c][1,2]oxaborol-1(3H)-yl)oxy)propane] | 0.8 (≈ 2.33 µM) | 8.9 (≈ 25.9 µM) | 0.3 (≈ 0.872 µM) | 0.1 (≈ 0.291 µM) | antimicrobial activity against Botrytis cinerea in grape in vivo analysis [2]: good antimicrobial activity; phytotoxicity in grape in vivo analysis [2]: no phytotoxicity; antimicrobial activity against Escherichia coli (colony growth relative to control) [3]: good antimicrobial activity; phytotoxicity in strawberry in vivo analysis [4]: no phytotoxicity; antimicrobial activity against Botrytis cinerea in strawberry in vivo analysis [4]: good antimicrobial activity
10 | Clc1ccc2c(c1)COB2OCCOB1OCc2cc(Cl)ccc21 [Compound 19, 1,2-bis((5-chlorobenzo[c][1,2]oxaborol-1(3H)-yl)oxy)ethane] | – | – | – | – | MIC Botrytis cinerea [1, 5]: 0 µg/mL
11 | Fc1ccc2c(c1)COB2OCc1ccc(COB2OCc3cc(F)ccc32)cc1 [Compound 14, 1,4-bis(((5-fluorobenzo[c][1,2]oxaborol-1(3H)-yl)oxy)methyl)benzene] | 1.7 (≈ 4.19 µM) | 17.9 (≈ 44.1 µM) | 1.1 (≈ 2.71 µM) | 0.4 (≈ 0.985 µM) | –
12 | Fc1ccc2c(c1)COB2OCCNCCNCCOB1OCc2cc(F)ccc21 [Compound 10, N^1,N^2-bis(2-((5-fluorobenzo[c][1,2]oxaborol-1(3H)-yl)oxy)ethyl)ethane-1,2-diamine] | 0.9 (≈ 2.16 µM) | 8.9 (≈ 21.4 µM) | 0.6 (≈ 1.44 µM) | 0.2 (≈ 0.481 µM) | –
13 | CC(C)(OB1OCc2cc(F)ccc21)C(C)(C)OB1OCc2cc(F)ccc21 [Compound 9, 1,1′-((2,3-dimethylbutane-2,3-diyl)bis(oxy))bis(5-fluoro-1,3-dihydrobenzo[c][1,2]oxaborole)] | 0.8 (≈ 2.07 µM) | 4.5 (≈ 11.7 µM) | 1.1 (≈ 2.85 µM) | 0.3 (≈ 0.777 µM) | EC50 (Alternaria alternata): 0.3 µg/mL (≈ 0.777 µM); MIC (Alternaria alternata): 2.2 µg/mL (≈ 5.7 µM); antimicrobial activity against Botrytis cinerea in grape in vivo analysis [2]: good antimicrobial activity; phytotoxicity in grape in vivo analysis [2]: no phytotoxicity; antimicrobial activity against Escherichia coli (colony growth relative to control) [3]: good antimicrobial activity; phytotoxicity in strawberry in vivo analysis [4]: no phytotoxicity; antimicrobial activity against Botrytis cinerea in strawberry in vivo analysis [4]: good antimicrobial activity
14 | Fc1ccc2c(c1)COB2NCCCNB1OCc2cc(F)ccc21 [Compound 16, N^1,N^3-bis(5-fluorobenzo[c][1,2]oxaborol-1(3H)-yl)propane-1,3-diamine] | 1 (≈ 2.92 µM) | 8.9 (≈ 26 µM) | 1.1 (≈ 3.22 µM) | 0.3 (≈ 0.877 µM) | –
15 | Fc1ccc2c(c1)COB2NCCNB1OCc2cc(F)ccc21 [Compound 17, N^1,N^2-bis(5-fluorobenzo[c][1,2]oxaborol-1(3H)-yl)ethane-1,2-diamine] | 1.8 (≈ 5.49 µM) | 17.9 (≈ 54.6 µM) | 1.1 (≈ 3.35 µM) | 0.4 (≈ 1.22 µM) | –
16 | Fc1ccc2c(c1)COB2OCc1cccc(COB2OCc3cc(F)ccc32)c1 [Compound 15, 1,3-bis(((5-fluorobenzo[c][1,2]oxaborol-1(3H)-yl)oxy)methyl)benzene] | 2.5 (≈ 6.16 µM) | 17.9 (≈ 44.1 µM) | 2.2 (≈ 5.42 µM) | 0.7 (≈ 1.72 µM) | –
17 | c1ccc2c(c1)COB2NCCNB1OCc2ccccc21 [Compound 5, N^1,N^2-bis(benzo[c][1,2]oxaborol-1(3H)-yl)ethane-1,2-diamine] | 3.3 (≈ 11.3 µM) | 17.9 (≈ 61.3 µM) | – | – | –
18 | c1ccc2c(c1)COB2OB1OCc2ccccc21 [Compound 6, 1,1′-oxybis(1,3-dihydrobenzo[c][1,2]oxaborole)] | 3.1 (≈ 12.4 µM) | 17.9 (≈ 71.6 µM) | 2.2 (≈ 8.8 µM) | 0.8 (≈ 3.2 µM) | –
